Where a name gives a salt, the structure may show the parent alone.
How the values were obtained:
MDA-MB-231 cells = assay: MTT cytotoxicity assay, MDA-MB-231; type: cell-based, human; conditions: human breast cancer cell line MDA-MB-231, MTT method, 24 h treatment, mean ± SD; read-out: IC50 MDA-MB-231
Description: The data was calculated and presented as IC50 values in Table 1.
(§1) The cytotoxicities of the compounds were evaluated by the MTT assay, which is based on the conversion of MTT to formazan crystals by mitochondrial dehydrogenases. […] The medium was incubated with 20 μL of 5 mg/mL MTT solution for 3 h in a humidified incubator containing 5% CO2. The purple coloured formazan crystals formed in the wells were dissolved in DMSO and their absorbances were measured at 570 nm with a microplate reader. Cell viability was expressed as a percentage of the value in control cultures.

MCF-7 cells = assay: MTT cytotoxicity assay, MCF-7; type: cell-based, human; conditions: MCF7; human breast cancer cell line MCF-7, MTT method, 24 h treatment, mean ± SD; read-out: IC50 MCF-7
Description: (§2) The anticancer activities of compounds 17–24, 41–56 against MCF-7, MDA-MB-231 and hTERT-RPE1 cells were determined in vitro by an MTT assay. […] The data was calculated and presented as IC50 values in Table 1.
as §1

hTERT-RPE1 cells = assay: MTT cytotoxicity assay, hTERT-RPE1 normal cells; type: cell-based, human; conditions: normal human retinal pigment epithelial cell line hTERT-RPE1, MTT method, 24 h treatment, mean ± SD; read-out: IC50 hTERT-RPE1
Description: as §2, §1

SMILES | melting point [°C] | IC50 (MDA-MB-231 cells) [µM] | IC50 (MCF-7 cells) [µM] | IC50 (hTERT-RPE1 cells) [µM]
CCOC(=O)/C=C/c1cccc(OC(=O)[C@@]2(C)CC[C@]3(C)CC[C@]4(C)C(=CC(=O)[C@@H]5[C@@]6(C)CC[C@H](O)C(C)(C)[C@@H]6CC[C@]54C)[C@@H]3C2)c1 [Compound 24, trans-3-Hydroxycinnamic acid ethyl ester 3β-hydroxy-11-oxo-olean-12-en-30-oate] | 173 to 175 | 23.2 ± 1.07 | 19.3 ± 0.98 | 22.9 ± 0.68
CCOC(=O)/C=C/c1ccc(OC)c(OC(=O)[C@@]2(C)CC[C@]3(C)CC[C@]4(C)C(=CC(=O)[C@@H]5[C@@]6(C)CC[C@H](O)C(C)(C)[C@@H]6CC[C@]54C)[C@@H]3C2)c1 [Compound 22, Isoferulic acid ethyl ester 3β-hydroxy-11-oxo-olean-12-en-30-oate] | 210 to 213 | 9.41 ± 1.03 | 19.3 ± 1.01 | 21.1 ± 0.73
COC(=O)/C=C/c1ccc(OC)c(OC(=O)[C@@]2(C)CC[C@]3(C)CC[C@]4(C)C(=CC(=O)[C@@H]5[C@@]6(C)CC[C@H](OC(=O)[C@@H](N)CCSC)C(C)(C)[C@@H]6CC[C@]54C)[C@@H]3C2)c1 (as salt: hydrochloride) [Compound 49, Isoferulic acid methyl ester 3β-(l-methionine)-11-oxo-olean-12-en-30-oate hydrochloride] | 199 to 201 | – | – | –
COC(=O)/C=C/c1ccc(OC(=O)[C@@]2(C)CC[C@]3(C)CC[C@]4(C)C(=CC(=O)[C@@H]5[C@@]6(C)CC[C@H](O)C(C)(C)[C@@H]6CC[C@]54C)[C@@H]3C2)c(OC)c1 [Compound 17, Ferulic acid methyl ester 3β-hydroxy-11-oxo-olean-12-en-30-oate] | 229 to 231 | 5.03 ± 0.82 | 13.6 ± 0.93 | 17.3 ± 1.21
COC(=O)/C=C/c1cccc(OC(=O)[C@@]2(C)CC[C@]3(C)CC[C@]4(C)C(=CC(=O)[C@@H]5[C@@]6(C)CC[C@H](O)C(C)(C)[C@@H]6CC[C@]54C)[C@@H]3C2)c1 [Compound 23, trans-3-Hydroxycinnamic acid methyl ester 3β-hydroxy-11-oxo-olean-12-en-30-oate] | 188 to 190 | 20.8 ± 1.2 | 14.9 ± 0.75 | 24.1 ± 0.88
COC(=O)/C=C/c1ccc(OC)c(OC(=O)[C@@]2(C)CC[C@]3(C)CC[C@]4(C)C(=CC(=O)[C@@H]5[C@@]6(C)CC[C@H](OC(=O)[C@@H](N)CC[Se]C)C(C)(C)[C@@H]6CC[C@]54C)[C@@H]3C2)c1 (as salt: hydrochloride) [Compound 50, Isoferulic acid methyl ester 3β-(l-selenomethionine)-11-oxo-olean-12-en-30-oate hydrochloride] | 201 to 203 | – | – | –

More lines, main results first:

melting point [°C] | SMILES | IC50 (MDA-MB-231 cells) [µM] | IC50 (MCF-7 cells) [µM] | IC50 (hTERT-RPE1 cells) [µM]
202 to 205 | COC(=O)/C=C/c1ccc(OC(=O)[C@@]2(C)CC[C@]3(C)CC[C@]4(C)C(=CC(=O)[C@@H]5[C@@]6(C)CC[C@H](O)C(C)(C)[C@@H]6CC[C@]54C)[C@@H]3C2)cc1 [Compound 19, trans-4-Hydroxycinnamic acid methyl ester 3β-hydroxy-11-oxo-olean-12-en-30-oate] | 14.4 ± 0.52 | 20.3 ± 1.47 | 29.6 ± 1.16
195 to 196 | CCOC(=O)/C=C/c1ccc(OC(=O)[C@@]2(C)CC[C@]3(C)CC[C@]4(C)C(=CC(=O)[C@@H]5[C@@]6(C)CC[C@H](O)C(C)(C)[C@@H]6CC[C@]54C)[C@@H]3C2)cc1 [Compound 20, trans-4-Hydroxycinnamic acid ethyl ester 3β-hydroxy-11-oxo-olean-12-en-30-oate] | 14.5 ± 0.58 | 24.4 ± 1.36 | 28.4 ± 0.87
215 to 217 | COC(=O)/C=C/c1ccc(OC)c(OC(=O)[C@@]2(C)CC[C@]3(C)CC[C@]4(C)C(=CC(=O)[C@@H]5[C@@]6(C)CC[C@H](O)C(C)(C)[C@@H]6CC[C@]54C)[C@@H]3C2)c1 [Compound 21, Isoferulic acid methyl ester 3β-hydroxy-11-oxo-olean-12-en-30-oate] | 7.31 ± 0.16 | 8.54 ± 0.67 | 18.6 ± 0.54
191 to 194 | CCOC(=O)/C=C/c1ccc(OC(=O)[C@@]2(C)CC[C@]3(C)CC[C@]4(C)C(=CC(=O)[C@@H]5[C@@]6(C)CC[C@H](OC(=O)[C@@H](N)CCSC)C(C)(C)[C@@H]6CC[C@]54C)[C@@H]3C2)c(OC)c1 (as salt: hydrochloride) [Compound 43, Ferulic acid ethyl ester 3β-(l-methionine)-11-oxo-olean-12-en-30-oate hydrochloride] | – | – | –
183 to 185 | CCOC(=O)/C=C/c1cccc(OC(=O)[C@@]2(C)CC[C@]3(C)CC[C@]4(C)C(=CC(=O)[C@@H]5[C@@]6(C)CC[C@H](OC(=O)[C@@H](N)CCSC)C(C)(C)[C@@H]6CC[C@]54C)[C@@H]3C2)c1 (as salt: hydrochloride) [Compound 55, trans-3-Hydroxycinnamic acid ethyl ester 3β-(l-methionine)-11-oxo-olean-12-en-30-oate hydrochloride] | – | – | –
224 to 226 | CCOC(=O)/C=C/c1ccc(OC(=O)[C@@]2(C)CC[C@]3(C)CC[C@]4(C)C(=CC(=O)[C@@H]5[C@@]6(C)CC[C@H](O)C(C)(C)[C@@H]6CC[C@]54C)[C@@H]3C2)c(OC)c1 [Compound 18, Ferulic acid ethyl ester 3β-hydroxy-11-oxo-olean-12-en-30-oate] | 8.14 ± 0.76 | 22.5 ± 1.26 | 22.8 ± 0.97
205 to 207 | COC(=O)/C=C/c1ccc(OC(=O)[C@@]2(C)CC[C@]3(C)CC[C@]4(C)C(=CC(=O)[C@@H]5[C@@]6(C)CC[C@H](OC(=O)[C@@H](N)CCSC)C(C)(C)[C@@H]6CC[C@]54C)[C@@H]3C2)cc1 (as salt: hydrochloride) [Compound 45, trans-4-Hydroxycinnamic acid methyl ester 3β-(l-methionine)-11-oxo-olean-12-en-30-oate hydrochloride] | – | – | –
